The values that follow come from US5162302A, “Endocrine manipulation to improve body composition of poultry” (University of Delaware, priority 1990, dated 1992).

Like-named read-outs stand apart in the source and are kept apart here.

Data set [1] is described as follows: Three daily intramuscular injections of GRF and dietary T3: growth, feed efficiency, body composition (Example 1). It counts as in vivo, broiler chickens. On the procedure:
Bird management. One day-old broiler cockerels (Ross x Arbor acre) were obtained from a commercial hatchery (Perdue Hatchery, Salisburg, MD). Five birds were randomly assigned to each of 24 pens during the first three weeks. Birds were housed in a Petersime battery-brooder and maintained in a environmentally controlled room on a 20L:4D light/dark cycle. The temperature was held at 33° C. for the first week and reduced 3° C. at weekly intervals. During this period, the chicks were provided with commercial starter ration (3100 kcal ME/kg and 22% crude protein) and water ad libitum.
At 3 weeks-of-age, four birds per pen were moved to wire cages. From 3 to 4 weeks of age, birds were fed a commercial broiler grower/finisher ration containing 19% crude protein and 3200 kcal metabolizable energy/kg. At 4 weeks of age, birds were fed a special high-protein ration that contained 25% crude protein and 3250 kcal ME/kg feed (See Table 1). […] During the experimental period (5 to 7 weeks of age), individual body weights and feed consumption were determined at weekly intervals for calculation of average daily gain (ADG), average daily feed consumption (ADFC) and gain-to-feed ratio (GTF).
Hormone treatments. […] Synthetic human pancreatic growth releasing factor (hpGRF1-44) was obtained from Pitman-Moore, Inc. (Terre Haute, IN). […] Begining at 35 days of age, broiler cockerels were given three daily intramuscular injections of buffer (0.05M sodium acetate, pH 5.0) or GRF dissolved in buffer (10 μg/kg body weight) each day at 0800, 1600, and 2400 hr. Each bird was weighed a 3 day intervals to adjust GRF dosage.
At 49 days of age, chickens were starved for 24 hours and killed for determination of final body, abdominal fat pad, and liver weights. Carcasses from one-half of the birds in each pen (2 birds/pen) were frozen for determination of body composition by proximate analysis. Each frozen carcass, including the liver and abdominal fat, was ground twice in meat grinder fitted with a one-quarter inch dye (Biro Model 5, Biro Mfg. Co., Marblehead, OH). Aliquots of the ground meat were dried at 80° C. for moisture determination. Dried samples were analyzed for protein by macro-Kjeldahl, fat by ether extraction, and ash contents according to established analytical procedures. Body composition data are presented as a percent of final body weight at 7 weeks of age.
Statistical analyses. All data were analyzed with the pen as the experimental unit since dietary treatments were applied to the pen and feed consumption was determined for each pen. Least squares regression analysis was used to test for effects of treatments on ADG, ADFC, GTF, body weight and body composition. Significant differences (P<0.05) among treatments were determined by Fisher's least significant difference test.

Data set [2] in a line: Three daily intravenous injections of GRF and dietary T3: growth, feed efficiency, body composition (Example 2). It counts as in vivo, broiler chickens. The source says: Bird management. Day-old broiler cockerels (Ross X Arbor Acre strain) were obtained from a commercial hatchery (Longnecker Hatchery, Elizabethtown, PA) and randomly assigned in groups of four birds to pens in a heated-battery brooder. Chicks were provided with a commercial broiler-starter ration (Pennfield Corp., Lancaster, PA), containing 3100 kcal metabolizable energy/kg feed and 23% crude protein, and water ad libitum. At 3 weeks of age, birds were transferred to wire pens held in a controlled-environment room. From 3 to 7 weeks of age, birds were maintained under a 20L:4D light-dark cycle at 21° C. and continuously provided with water and a commercial broiler-finisher ration containing 3250 kcal metabolizable energy/kg feed and 20% crude protein. Broiler cockerels were given three daily intravenous injections of either buffer (0.1M phosphate buffer, pH 7.0; BC) or GRF dissloved in buffer (25 μg/kg body weight) at 0800, 1600, and 2400 hr.
Dietary T3 and GRF Treatments. Four treatments were randomly assigned to pens in a randomized-complete-block design with three replicate pens per treatment. […] All birds were weighted at three day intervals to adjust the daily GRF dosage. Recombinant-derived human growth hormone-releasing factor (rhGRF1-44) was obtained from Pitman-Moore, Inc. (Terre Haute, IN).
The average daily gain (ADG), average daily feed consuption (ADFC) and the gain-to-feed ratio (GTF) were determined for the two week period (5 to 7 weeks of age). At the end of the experiment (7 weeks of age), each bird was killed to obtain the final body, abdominal fat and liver weights. Carcasses were frozen for determination of body composition as described in Example 1.
Statistical analyses. A randomized-complete-block design was used in which the four treatments were replicated in three pens. The growth data were analyzed with the pen as the experimental unit, since feed comsumption was determined for each pen of four birds. Significant differences (P≤0.05) due to the main effect of treatment were determined by Fisher's Least Significant Difference test.

The nature of data set [3]: Dietary T3 in finishing feed, dose-response: plasma T3, muscle protein turnover, fat, growth, hormones.
For data set [4] the following is noted: 0.25 to 1 ppm in diet throughout the entire growth cycle; cited from earlier work.
Data set [5] can be described thus: Protein:fat ratio of broiler chickens under hormone treatments. It counts as in vivo. The settings on record: at the doses tested.
The conditions of data set [6]: 1 to 10 μg TRH/day i.v. from 4 to 6 or 8 weeks-of-age; cited from earlier work.
For data set [7] the following is noted: TRH 1 or 10 μg/kg/day, GRF 10 μg/kg/day i.v., 21 days, cited from earlier work.
The conditions of data set [8]: induced hypothyroid state; cited from earlier work.
For data set [9] the following is noted: finishing pigs, injection; cited from earlier work.
Setting [10] is: 5 to 7 weeks of age, T3 0.25 ppm, GRF 10 μg/kg i.m. 3x daily, mean ± SEM of four pens.
Where [11] appears, read: 7 weeks of age, i.m. GRF, four pens (2 birds/pen).
The mark [12] stands for this setting: 7 weeks of age, i.m. GRF, mean ± SEM of four pens.
Where [13] appears, read: 5 to 7 weeks of age, T3 0.25 ppm, GRF 25 μg/kg i.v. 3x daily, mean ± SEM of three pens.
The mark [14] stands for this setting: 7 weeks of age, i.v. GRF, mean ± SEM of twelve cockerels.
Where [15] appears, read: 7 weeks of age, i.v. GRF, twelve cockerels.
[16] abbreviates: 0.25 ppm T3, compared to the control group.
Setting [17] is: plasma thyroid hormone bioactivity 360-1200% of normal.

On to `N[C@@H](Cc1cc(I)c(Oc2ccc(O)c(I)c2)c(I)c1)C(=O)O` [T3, 3,3',5-triiodo-L-thyronine], for which the “ADG (average daily weight gain)” value in data set [1] (5 to 7 weeks of age, T3 0.25 ppm in feed, GRF 10 μg/kg i.m. three times daily, 25% protein ration, mean ± SEM of four pens) is listed as 76.5 ± 3.0. In [1] (setting [10]), the “ADFC (average daily feed consumption)” value worked out at 185.1 ± 7.1 and the “GTF (gain-to-feed ratio)” value amounted to 0.414 ± 0.01. In addition, the “Reduction of total body fat content” value in data set [1] (7-week-old chickens, compared to the CF+BI group) was found to be 10%. The “Final body weight BW” value in data set [1] (7 weeks of age, T3 0.25 ppm, GRF 10 μg/kg i.m. 3x daily, mean ± SEM of four pens) was 2.75 ± 0.05 kg. In data set [1] (setting [11]), the “Body composition: ash” value worked out at 2.24 ± 0.08 % BW, the “Body composition: fat” value amounted to 10.0 ± 0.78 % BW, the “Body composition: protein” value came to 17.1 ± 0.26 % BW and the “Body composition: water” value is reported as 67.6 ± 0.70 % BW. Besides, in [1] (setting [12]), the “Relative weight of abdominal fat pad” value amounted to 1.12 ± 0.11 % BW and the “Relative weight of liver” value came to 1.99 ± 0.09 % BW. In [1] (compared to the CF+BC group, P<0.05), the “Reduction of abdominal fat weight” value is listed as 31%. In addition, in [1] (dietary T3 or daily i.m. GRF), the “Effect on ADG, ADFC or GTF” value is recorded as “no effect”. For the same molecule, in [2] (5 to 7 weeks of age, T3 0.25 ppm in feed, GRF 25 μg/kg i.v. three times daily, mean ± SEM of three pens), the “ADG (average daily weight gain)” value is listed as 70.7 ± 5.3. In [2] (setting [13]), the “ADFC (average daily feed consumption)” value turned out to be 157.0 ± 7.2 and the “GTF (gain-to-feed ratio)” value is on record as 0.448 ± 0.021. In [2] (7 weeks of age, vs control), the “Increase of body water content” value came to 2% and the “Reduction of body fat content” value is 10%. In addition, in data set [2] (setting [14]), the “Final body weight BW” value is listed as 2.82 ± 0.06 kg, the “Relative weight of abdominal fat” value was 1.54 ± 0.14 % BW and the “Relative weight of liver” value amounted to 2.06 ± 0.05 % BW. Further, in data set [2] (setting [15]), the “Body composition: ash” value was 2.45 ± 0.04 % BW, the “Body composition: fat” value is listed as 11.5 ± 0.64 % BW, the “Body composition: protein” value was determined as 18.8 ± 0.19 % BW and the “Body composition: water” value is 67.0 ± 0.50 % BW. Also, in [2] (compared to the CF+BI group), the “Reduction of abdominal fat weight” value is 20%. In addition, the “Effect on ADG, ADFC or the GTF ratio” value in data set [2] (dietary T3 or daily i.v. GRF alone, or in combination) is reported as “did not significantly affect”. For the same molecule, the “Effect upon weight gain” value in [3] (0.1 ppm T3 in finishing feed) is “no significant adverse effect”. Moreover, in [3] (0.25 ppm T3), the “Increase of protein accretion in breast and leg muscle” value is listed as 45-88%; the “Reduction of abdominal fat weight” value was determined as 22%. In [3] (setting [16]), the “Increase of FAR of leg muscle” value is 45% and the “Increase of FAR of pectoralis major (breast muscle)” value is 88%. Further, in data set [3] (0.25 ppm T3 in feed), the “Effect on growth rate” value was “virtually no statistically significant adverse effect”, the “Plasma T3 level” value was 2.7 ± 0.2 ng/mL and the “Plasma T3 level (control group = 100% of normal)” value is recorded as ~ 208%. The “Increase of rate of protein synthesis in the leg muscle” value in data set [3] (0.25 to 4 ppm of feed, p<0.05) is given as “at least 49%”. Also, in [3] (1 ppm T3 in feed), the “Plasma T3 level” value amounted to 4.5 ± 0.8 ng/mL and the “Plasma T3 level (control group = 100% of normal)” value is on record as ~ 346%. The “Effect upon weight gain” value in data set [3] (1 ppm T3 in finishing feed) is reported as “some deviation from normal weight gain”. Besides, in [3] (4 ppm T3 in feed), the “Plasma T3 level” value was determined as 16.3 ± 2.6 ng/mL and the “Plasma T3 level (control group = 100% of normal)” value is on record as ~ 125%. In addition, the “Increase of fractional degradation rate of breast muscle” value in data set [3] (4 ppm of T3) stood at 116%. In data set [3] (4 ppm of T3, p<0.05), the “Increase of fractional synthesis rate (FSR) of the pectoralis major (breast) muscle” value was 56%. Moreover, the “Fractional Accretion Rate (FAR) in the pectoralis major (breast) muscle” value in data set [3] (T3 doses in the 1 to 4 ppm range) was “affected negatively”. Also, the “Plasma GH levels” value in data set [3] (dietary T3 during the finishing phase) is listed as “decrease”. In data set [3] (dietary T3 treatment alone), the Glucagon secretion entry is listed as “increased” and the Insulin secretion entry is on record as “depresses”. The “Protein synthesis rate in breast muscle” value in data set [3] (lower doses of T3 (0.25 to 1 ppm)) is listed as “only a slight effect”. In data set [3] (setting [17]), the “Depression of body weight gain” value is recorded as at most 57% and the “Depression of feed consumption” value is on record as at most 35%. Besides, in [4], the “Growth performance (body weight gain and feed efficiency)” value was “reduced body weight gain and feed efficiency”.

`NC(=O)[C@@H]1CCCN1C(=O)[C@H](Cc1c[nH]cn1)NC(=O)[C@@H]1CCC(=O)N1` [TRH, pyro-L-Glu-L-His-L-Pro-NH2]: in data set [5], the “Effect on protein:fat ratio” value is listed as “decrease”. Moreover, the Growth rate result in data set [6] was “capable of increasing the growth rate”. In addition, the “Plasma GH levels” value in data set [7] is “elevated”. For the same molecule, the “Growth rate and feed efficiency” value in data set [7] (alone or in combination) is recorded as “failed to stimulate growth rate or improve feed efficiency”.

In the case of `CCCc1cc(=O)[nH]c(=S)[nH]1` [propylthiouracil], in [8], the Body fat result is reported as “increased accumulation of body fat” and the Plasma insulin levels result is “elevated”. Besides, the “Effect on protein:fat ratio” value in data set [5] is “decrease”.

B1: pGH: purified porcine growth hormone (protein, UniProt P01248 27-216, looked up)
Somatotropin: FPAMPLSSLFANAVLRAQHLHQLAADTYKEFERAYIPEGQRYSIQNAQAAFCFSETIPAPTGKDEAQQRSDVELLRFSLLLIQSWLGPVQFLSRVFTNSLVFGTSDRVYEKLKDLEEGIQALMRELEDGSPRAGQILKQTYDKFDTNLRSDDALLKNYGLLSCFKKDLHKAETYLRVMKCRRFVESSCAF
On to B1, for which, in data set [9], the “Improvement of feed conversion” value is reported as 7-19%, the “Increase of growth rate” value was 10-14%, the “Increase of muscle mass” value was 24-36% and the “Reduction of carcass fat content” value is recorded as 18-25%.

B2: GH: growth hormone (e.g. ncGH, natural chicken GH) (protein, UniProt P08998 26-216, looked up)
Somatotropin: TFPAMPLSNLFANAVLRAQHLHLLAAETYKEFERTYIPEDQRYTNKNSQAAFCYSETIPAPTGKDDAQQKSDMELLRFSLVLIQSWLTPVQYLSKVFTNNLVFGTSDRVFEKLKDLEEGIQALMRELEDRSPRGPQLLRPTYDKFDIHLRNEDALLKNYGLLSCFKKDLHKVETYLKVMKCRRFGESNCTI
With B2, the “Effect on protein:fat ratio” value in data set [5] was “decrease”.
